Converted amounts (≈) assume the structure as drawn.

The subject of the experiment is Staphylococcus aureus (金黄色葡萄球菌), S.aureus strains ATCC 29213. Kind of experiment: 最小抑菌浓度MIC (minimum inhibitory concentration of totarol). Type of experiment: cell-based. The conditions noted are these: value used for loading in the Example concerned.

For `CC(C)c1c(O)ccc2c1CC[C@H]1C(C)(C)CCC[C@]21C` [桃柁酚, 桃柁酚(Totarol)], the MIC (in general, the lowest concentration found to suppress growth) (Staphylococcus aureus, ATCC29213, totarol against Staphylococcus aureus) was determined as 2 µg/mL (≈ 6.98 µM). In addition, the “minimum inhibitory concentration (MIC value)” value (totarol against Staphylococcus aureus) turned out to be 4 µg/mL (≈ 14 µM).
